# Laboratory results reported in article PMC6248945, “Antibacterial properties of the pituitary adenylate cyclase-activating polypeptide: A new human antimicrobial peptide” (PLoS ONE, 2018).
# Like-named read-outs stand apart in the source and are kept apart here. Where a SMILES comes first, the peptide text is derived from it.
# Legend:
# [1] = test system: Bacillus circulans (LSPQ3543); conditions: 20 h
# [2] = test system: Bacillus amyloliquefaciens (LMG22478); conditions: LMG22478, 20 h
# [3] = test system: Burkholderia cenocepacia (LMG19240); conditions: CLSI microdilution, MHB, 37 °C, 20h, OD read-out; at least triplicate
# [4] = test system: Pseudomonas aeruginosa (ATCC33350-Sero-2); conditions: ATCC33350, 20 h
# [5] = test system: Burkholderia cenocepacia (K56-2); conditions: 20 h
# [6] = test system: Bacillus cereus (ATCC11778); conditions: ATCC11778, 20 h
# [7] = test system: Escherichia coli ATCC25922; conditions: ATCC25922, 20 h
# [8] = test system: Staphylococcus aureus (ATCC6538#P); conditions: ATCC6538, 20 h
# Bacillus subtilis (PY79) = conditions: PY79, 20 h
# Escherichia coli (JM109) = assay: MIC, CLSI microdilution; assay type: cell-based; conditions: MHB, 37 °C, 20h, OD read-out, at least triplicate
# Method: Assays were performed according to the CLSI microdilution method. Briefly, the bacterial strains were inoculated and allowed to reach an OD600 of 0.08–0.13 prior to dilution to 10^6 CFU/mL in Mueller-Hinton broth (MHB). A bacterial suspension (50 μL) was then added to each well of a 96-well microplate containing serially diluted peptide solutions (50 μL in MHB) and incubated at 37 °C for 20h. A well containing sterilized medium was used as a sterility control and another well containing no added peptide served as a growth control.
# [9] = relative to PACAP38; cited from earlier work
# [10] = test system: Burkholderia cenocepacia (CEP0511 Gvar3b); conditions: CLSI microdilution, MHB, 37 °C, 20h, OD read-out; at least triplicate
# [11] = test system: Pseudomonas putida (KT2440)
# [12] = test system: Pseudomonas fluorescens (MF37); conditions: 20 h
# [13] = test system: Burkholderia cenocepacia (J2315); conditions: 20 h
# [14] = test system: Pseudomonas aeruginosa (PA14); conditions: PA14, 20 h
# [15] = test system: Burkholderia thailendensis (ATCC700388); conditions: CLSI microdilution, MHB, 37 °C, 20h, OD read-out; at least triplicate
# [16] = test system: Burkholderia cenocepacia (LMG18829); conditions: LMG18829, 20 h
# [17] = test system: Escherichia coli (O157 :H7); conditions: CLSI microdilution, MHB, 37 °C, 20h, OD read-out; at least triplicate
# DPP-IV = test system: DPP-IV; parameters: method as in PMID 18353507; conditions: cited from earlier work
# Bacillus subtilis (2597) = conditions: 2597, 20 h
# [18] = test system: Actinobacillus pleuropneumoniae (4074); conditions: 20 h
# [19] = test system: Serratia marcescens (ATCC14756); conditions: ATCC14756, 20 h
# [20] = test system: Staphylococcus aureus (Newman); conditions: 20 h
# Bacillus velezensis = conditions: 20 h
Compound,"MIC, Bacillus circulans (LSPQ3543) [1]","MIC, Bacillus amyloliquefaciens [2]","MIC, Burkholderia cenocepacia (LMG19240) [3]","MIC, Pseudomonas aeruginosa (ATCC33350-Sero-2) [4]","MIC, Burkholderia cenocepacia (K56-2) [5]","MIC, Bacillus cereus (ATCC11778) [6]","MIC, Escherichia coli ATCC25922 [7]","MIC, Staphylococcus aureus (ATCC6538#P) [8]","MIC, Bacillus subtilis (PY79) (Bacillus subtilis (PY79))","MIC, Escherichia coli (JM109) (Escherichia coli (JM109))",Metabolic stability in human plasma [9],"MIC, Burkholderia cenocepacia (CEP0511 Gvar3b) [10]","MIC, Pseudomonas fluorescens (MF37) [12]","MIC, Burkholderia cenocepacia (J2315) [13]","MIC, Pseudomonas aeruginosa (PA14) [14]","MIC, Burkholderia thailendensis (ATCC700388) [15]","MIC, Burkholderia cenocepacia (LMG18829) [16]","MIC, Escherichia coli (O157 :H7) [17]",Metabolic stability against DPP-IV (DPP-IV),"MIC, Bacillus subtilis (2597) (Bacillus subtilis (2597))",other results
"CC[C@H](C)[C@H](NC(=O)CNC(=O)[C@H](CC(=O)O)NC(=O)[C@H](CO)NC(=O)[C@@H](N)Cc1c[nH]cn1)C(=O)N[C@@H](Cc1ccccc1)C(=O)N[C@H](C(=O)N[C@@H](CC(=O)O)C(=O)N[C@@H](CO)C(=O)N[C@@H](Cc1ccc(O)cc1)C(=O)N[C@@H](CO)C(=O)N[C@@H](CCCNC(=N)N)C(=O)N[C@@H](Cc1ccc(O)cc1)C(=O)N[C@@H](C)C(=O)N[C@@H](CCCCN)C(=O)N[C@@H](CCC(N)=O)C(=O)N[C@@H](CCSC)C(=O)N[C@@H](C)C(=O)N[C@H](C(=O)N[C@@H](C)C(=O)N[C@@H](CCCCN)C(=O)N[C@@H](Cc1ccc(O)cc1)C(=O)N[C@@H](CC(C)C)C(=O)N[C@@H](C)C(=O)N[C@@H](C)C(=O)N[C@H](C(=O)N[C@@H](CC(C)C)C(=O)NCC(=O)N[C@@H](CCCCN)C(=O)N[C@@H](CCCNC(=N)N)C(=O)N[C@@H](Cc1ccc(O)cc1)C(=O)N[C@@H](CCCCN)C(=O)N[C@@H](CCC(N)=O)C(=O)N[C@@H](CCCNC(=N)N)C(=O)N[C@H](C(=O)N[C@@H](CCCCN)C(=O)N[C@@H](CC(N)=O)C(=O)N[C@@H](CCCCN)C(N)=O)C(C)C)C(C)C)C(C)C)[C@@H](C)O [compound 6, [Ala^14,20]PACAP38] (H-HSDGIFTDSYSRYAKQMAVAKYLAAVLGKRYKQRVKNK-NH2)",94 µg/mL,9 µg/mL,>200 µg/mL,>200 µg/mL,>200 µg/mL,>200 µg/mL,>200 µg/mL,>200 µg/mL,3.5 µg/mL,37 µg/mL,improved metabolic stability,>200 µg/mL,>200 µg/mL,8 µg/mL,>200 µg/mL,>200 µg/mL,>200 µg/mL,113 µg/mL,improved metabolic stability,187 µg/mL,"MIC, Pseudomonas putida (KT2440) ([11]; CLSI microdilution, MHB, 37 °C, 20h, OD read-out, at least triplicate): 113 µg/mL; MIC, Actinobacillus pleuropneumoniae [18]: >200 µg/mL; MIC, Serratia marcescens (ATCC14756) [19]: >200 µg/mL; MIC, Staphylococcus aureus (Newman) [20]: >200 µg/mL; MIC, Bacillus velezensis (Bacillus velezensis): 52 µg/mL"
"CCCCCC(=O)N[C@@H](Cc1c[nH]cn1)C(=O)N[C@@H](CO)C(=O)N[C@@H](CC(=O)O)C(=O)NCC(=O)N[C@H](C(=O)N[C@@H](Cc1ccccc1)C(=O)N[C@H](C(=O)N[C@@H](CC(=O)O)C(=O)N[C@@H](CO)C(=O)N[C@@H](Cc1ccc(O)cc1)C(=O)N[C@@H](CO)C(=O)N[C@@H](CCCNC(=N)N)C(=O)N[C@@H](Cc1ccc(O)cc1)C(=O)N[C@@H](CCCNC(=N)N)C(=O)N[C@@H](CCCCN)C(=O)N[C@@H](CCC(N)=O)C(=O)N[C@@H](CCSC)C(=O)N[C@@H](C)C(=O)N[C@H](C(=O)N[C@@H](CCCCN)C(=O)N[C@@H](CCCCN)C(=O)N[C@@H](Cc1ccc(O)cc1)C(=O)N[C@@H](CC(C)C)C(=O)N[C@@H](C)C(=O)N[C@@H](C)C(=O)N[C@H](C(=O)N[C@@H](CC(C)C)C(=O)NCC(=O)N[C@@H](CCCCN)C(=O)N[C@@H](CCCNC(=N)N)C(=O)N[C@@H](Cc1ccc(O)cc1)C(=O)N[C@@H](CCCCN)C(=O)N[C@@H](CCC(N)=O)C(=O)N[C@@H](CCCNC(=N)N)C(=O)N[C@H](C(=O)N[C@@H](CCCCN)C(=O)N[C@@H](CC(N)=O)C(=O)N[C@@H](CCCCN)C(N)=O)C(C)C)C(C)C)C(C)C)[C@@H](C)O)[C@@H](C)CC [compound 2, N-hexanoyl-PACAP38]",58 µg/mL,26 µg/mL,>200 µg/mL,>200 µg/mL,>200 µg/mL,>200 µg/mL,>200 µg/mL,>200 µg/mL,12 µg/mL,116 µg/mL,improved metabolic stability,>200 µg/mL,>200 µg/mL,10 µg/mL,>200 µg/mL,>200 µg/mL,>200 µg/mL,>200 µg/mL,improved metabolic stability,154 µg/mL,"MIC, Pseudomonas putida (KT2440) ([11]; 20 h): 77 µg/mL; MIC, Actinobacillus pleuropneumoniae [18]: 232 µg/mL; MIC, Serratia marcescens (ATCC14756) [19]: >200 µg/mL; MIC, Staphylococcus aureus (Newman) [20]: >200 µg/mL; MIC, Bacillus velezensis (Bacillus velezensis): 87 µg/mL"
"CC[C@H](C)[C@H](NC(=O)CNC(=O)[C@H](CC(=O)O)NC(=O)[C@H](CO)NC(=O)[C@@H](N)Cc1c[nH]cn1)C(=O)N[C@@H](Cc1ccccc1)C(=O)N[C@H](C(=O)N[C@@H](CC(=O)O)C(=O)N[C@@H](CO)C(=O)N[C@@H](Cc1ccc(O)cc1)C(=O)N[C@@H](CO)C(=O)N[C@@H](CCCNC(=N)N)C(=O)N[C@@H](Cc1ccc(O)cc1)C(=O)N[C@@H](CCCNC(=N)N)C(=O)N[C@@H](CCCCN)C(=O)N[C@@H](CCC(N)=O)C(=O)N[C@@H](CCSC)C(=O)N[C@@H](C)C(=O)N[C@H](C(=O)N[C@@H](CCCCN)C(=O)N[C@@H](C)C(=O)N[C@@H](Cc1ccc(O)cc1)C(=O)N[C@@H](CC(C)C)C(=O)N[C@@H](C)C(=O)N[C@@H](C)C(=O)N[C@H](C(=O)N[C@@H](CC(C)C)C(=O)NCC(=O)N[C@@H](CCCCN)C(=O)N[C@@H](CCCNC(=N)N)C(=O)N[C@@H](Cc1ccc(O)cc1)C(=O)N[C@@H](CCCCN)C(=O)N[C@@H](CCC(N)=O)C(=O)N[C@@H](CCCNC(=N)N)C(=O)N[C@H](C(=O)N[C@@H](CCCCN)C(=O)N[C@@H](CC(N)=O)C(=O)N[C@@H](CCCCN)C(N)=O)C(C)C)C(C)C)C(C)C)[C@@H](C)O [compound 5, [Ala^21]PACAP38] (H-HSDGIFTDSYSRYRKQMAVKAYLAAVLGKRYKQRVKNK-NH2)",84 µg/mL,20 µg/mL,>200 µg/mL,>200 µg/mL,>200 µg/mL,>200 µg/mL,>200 µg/mL,>200 µg/mL,42 µg/mL,112 µg/mL,improved metabolic stability,>200 µg/mL,>200 µg/mL,20 µg/mL,>200 µg/mL,>200 µg/mL,>200 µg/mL,>200 µg/mL,improved metabolic stability,56 µg/mL,"MIC, Pseudomonas putida (KT2440) ([11]; 20 h): 186 µg/mL; MIC, Actinobacillus pleuropneumoniae [18]: >200 µg/mL; MIC, Serratia marcescens (ATCC14756) [19]: >200 µg/mL; MIC, Staphylococcus aureus (Newman) [20]: >200 µg/mL; MIC, Bacillus velezensis (Bacillus velezensis): 168 µg/mL"
